The target of assay [1] is Carbonic anhydrase 2 (Homo sapiens, UniProt P00918). Briefly: Inhibition of human carbonic anhydrase 2 using 4-nitrophenylacetate as substrate after 3 mins by spectrophotometric analysis.
For assay [2], the target named is Carbonic anhydrase 1 (Homo sapiens, UniProt P00915). In words: Inhibition of human carbonic anhydrase 1 using 4-nitrophenylacetate as substrate after 3 mins by spectrophotometric analysis.

The structures appear in SMILES notation.

Sequence of Carbonic anhydrase 1 (P00915 whole entry): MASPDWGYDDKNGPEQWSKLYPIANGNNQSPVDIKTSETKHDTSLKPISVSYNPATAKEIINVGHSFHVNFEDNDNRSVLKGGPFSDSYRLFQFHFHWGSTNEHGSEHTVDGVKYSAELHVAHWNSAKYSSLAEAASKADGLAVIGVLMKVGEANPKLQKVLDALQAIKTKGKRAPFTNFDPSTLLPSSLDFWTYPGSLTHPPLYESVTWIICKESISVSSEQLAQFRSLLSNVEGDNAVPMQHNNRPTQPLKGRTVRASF

For `c1ccc2c(c1)c1c(n2Cc2ccc(Cn3c4c(c5ccccc53)CCCC4)cc2)CCCC1`, the Ki was 0.25 µM in assay [1] and 39.3 µM in assay [2].
With `c1ccc2c(c1)c1c(n2Cc2ccc(Cn3c4c(c5ccccc53)CCC4)cc2)CCC1`, the Ki was determined as 0.17 µM in assay [1] and 42.6 µM in assay [2].
For the compound `c1ccc2c(c1)c1c(n2Cc2ccc(Cn3c4c(c5ccccc53)CCCCC4)cc2)CCCCC1`, the Ki in assay [1] stood at 0.29 µM; in assay [2] it was 41.7 µM.

(Values after ChEMBL document CHEMBL2331190, “Synthesis of 1,4-bis(indolin-1-ylmethyl)benzene derivatives and their structure-activity relationships for the interaction of human carbonic anhydrase isoforms I and II” (Bioorg Med Chem, 2013).)
